Laboratory results from patent publication US7601856B2 (Wyeth, priority 2006, dated 2009).

Legend:
[1] = test system: isolated rat bladder strips; assay: Inhibition of contractions of isolated rat bladder strips; settings: strips stimulated with additional 15 mM KCl; for IC50: 0.5 h, concentration eliciting 50% inhibition of pre-drug contractile activity, 30 minute challenge per concentration, read-out: IC50; for inhibition at 30 µM: maximum percentage inhibition of contractile activity, read-out: % Inhibition of Contractility @ 30 μM
Experimental: The compounds of the examples were tested to determine their ability to inhibit contractions of isolated rat bladder strips. See Foster, C. […] Malmgren, A. et al. J.Urol.
Male Sprague-Dawley rats (150-200 g) were obtained from ACE animal suppliers. Animals were allowed free access to food and water.
Animals were euthanized by CO2 asphyxiation followed by a bilateral thoracotomy. […] The bladder was opened and then cut into strips 1-2 mm in width and 7-10 mm in length. The strips were subsequently suspended in a 10 ml tissue bath under an initial resting tension of 1.5 g. The strips were held in place by two surgical clips one of which was attached to a fixed hook while the other was attached to an isometric force transducer. […] The carbachol was then washed out and the tissue allowed to relax to its resting level of activity. Following a further 30 minute period of recovery an additional 15 mM KCl were introduced into the tissue bath. […] Following stabilization of this enhanced level of contractile activity, incremental increases in the concentration of test compound or vehicle were introduced into the tissue bath. Contractile activity was measured for each compound or vehicle concentration during the last minute of a 30 minute challenge.
Isometric force developed by the bladder strips was measured using a force transducer and recorded on a polygraph. Contractile activity was assessed by measuring either the average amplitude of the contractions (baseline to peak force) occurring during a one minute period or, preferably, by integrating the contractile activity with respect to time (one minute measuring period).
The percentage inhibition of contractile activity evoked by each concentration of a given test compounds was used to generate a concentration-response curve.

| Compound | melting point | IC50 [1] | inhibition at 30 µM [1] |
| --- | --- | --- | --- |
| O=C(Cc1ccccc1)Nc1ccc2oc3c(c2c1)CCCC3 [Example 4, 2-PHENYL-N-(6,7,8,9-TETRAHYDRO-DIBENZOFURAN-2-YL)-ACETAMIDE] | 180 to 181 °C | 9.1 to 12 µM | – |
| CC(=O)Nc1ccc2oc3c(c2c1)CCCC3 [Example 11, N-(6,7,8,9-TETRAHYDRO-DIBENZOFURAN-2-YL)-ACETAMIDE] | 195.5 to 197.5 °C | – | 20 to 30% |
| CC(C)(C)C(=O)Nc1ccc2oc3c(c2c1)CCC3 [Example 24, N-(2,3-DIHYDRO-1H-CYCLOPENTA(b)BENZOFURAN-7-YL)-2,2-DIMETHYL-PROPIONAMIDE] | 188.5 to 190 °C | 1 to 5 µM | – |
| CC(C)(C)C(=O)Nc1ccc2oc3c(c2c1)CCCCC3 [Example 27, 2,2-DIMETHYL-N-(6,7,8,9-TETRAHYDRO-5H-10-OXA-BENZO[A]AZULEN-3-YL)-PROPIONAMIDE] | 208 to 209 °C | 0.1 to 0.4 µM | – |
| CC(C)CC(=O)Nc1ccc2oc3c(c2c1)CCCCC3 [Example 28, 3-METHYL-N-[7,8,9,10-TETRAHYDRO-6H-Benzo[B]-Cyclohepta[D]FURAN-2-YL]BUTYRAMIDE] | 162 to 163 °C | 1 to 5 µM | – |
| CCC(=O)Nc1ccc2oc3c(c2c1)CCCC3 [Example 8, N-(6,7,8,9-TETRAHYDRO-DIBENZOFURAN-2-yl)-PROPIONAMIDE] | 164 to 165 °C | 4 to 8 µM | – |
| CC(C)CC(=O)Nc1ccc2oc3c(c2c1)CCCC3 [Example 2, 3-METHYL-N-(6,7,8,9-TETRAHYDRO-DIBENZOFURAN-2-YL)-BUTYRAMIDE] | 154 to 157 °C | 1.2 to 4 µM | – |
| O=C(Nc1ccc2oc3c(c2c1)CCCC3)C12CC3CC(CC(C3)C1)C2 [Example 5, ADAMANTANE-1-CARBOXYLIC ACID (6,7,8,9-TETRAHYDRO-DIBENZOFURAN-2-YL)-AMIDE] | 247 to 248 °C | – | 10 to 30% |
| CC(C)CCC(=O)Nc1ccc2oc3c(c2c1)CCCC3 [Example 14, 4-METHYL-N-(6,7,8,9-TETRAHYDRO-DIBENZOFURAN-2-YL)-PENTANAMIDE] | 145.5 to 146 °C | 10 to 20 µM | – |
| CC(C)C(=O)Nc1ccc2oc3c(c2c1)CCCC3 [Example 9, N-(6,7,8,9-TETRAHYDRO-DIBENZOFURAN-2-YL)-ISOBUTYRAMIDE] | 206.5 to 208 °C | 6 to 8 µM | – |
| O=C(Nc1ccc2oc3c(c2c1)CCCC3)c1ccc([N+](=O)[O-])cc1 [Example 15, 4-NITRO-N-(6,7,8,9-TETRAHYDRO-DIBENZOFURAN-2-YL)-BENZAMIDE] | 279 to 280 °C | – | 10 to 20% |
| O=C(Nc1ccc2oc3c(c2c1)CCCC3)c1ccccc1 [Example 18, N-(6,7,8,9-TETRAHYDRO-DIBENZOFURAN-2-YL)-BENZAMIDE] | 178 to 180 °C | – | 40 to 50% |
| CC(C)(C)c1ccc(C(=O)Nc2ccc3oc4c(c3c2)CCCC4)cc1 [Example 6, 4-TERT-BUTYL-N-(6,7,8,9-TETRAHYDRO-DIBENZOFURAN-2-YL)-BENZAMIDE] | 185 to 186 °C | – | 10 to 20% |
| CC(C)CC(=O)Nc1ccc2oc3c(c2c1)CCC3 [Example 25, N-(2,3-DIHYDRO-1H-CYCLOPENTA[B]BENZOFURAN-7-YL)-3-METHYL-BUTYRAMIDE] | 162 to 163 °C | 3 to 8 µM | – |
| Cc1ccccc1C(=O)Nc1ccc2oc3c(c2c1)CCCC3 [Example 12, 2-METHYL-N-(6,7,8,9-TETRAHYDRO-DIBENZOFURAN-2-YL)-BENZAMIDE] | 209 to 210 °C | – | 20 to 30% |
| CC(C)(C)CC(=O)Nc1ccc2oc3c(c2c1)CCCC3 [Example 3, 3,3-DIMETHYL-N-(6,7,8,9-TETRAHYDRO-DIBENZOFURAN-2-YL)-BUTYRAMIDE] | 164 to 165 °C | 3 to 11 µM | – |
| CC(C)(C)CC(=O)Nc1ccc2oc3c(c2c1)CCCCC3 [Example 26, 3,3-DIMETHYL-N-[7,8,9,10-TETRAHYDRO-6H-Benzo[B]-CYCLOHEPTA[d]FURAN-2-YL]BUTYRAMIDE] | 182 to 183 °C | 0.2 to 0.7 µM | – |
| CC(C)(C)C(=O)Nc1ccc2oc3c(c2c1)CCCCCC3 [Example 63, 2,2-DIMETHYL-N-[6,7,8,9,10,11-HEXAHYDRO-BENZO[B]-CYCLOOCTA[D]-FURAN-2-YL]PROPIONAMIDE] | 189 to 190 °C | 0.11 to 0.25 µM | – |
